A short description of series [1]: Volatility of compounds measured by thermogravimetric analysis (TGA). The class given is physicochemical.
In series [2] the test system is Abutilon theophrasti (ABUTH), velvetleaf. Nature of the series: Postemergence herbicide evaluation, growth of Abutilon theophrasti (ABUTH). The following applies: Abutilon theophrasti, post-emergence, read-out: AVE. ABUTH. The series is classed as in vivo.
For series [3], the system named is weeds ABUTH, AMATA, AMBEL, CHEAL, ERICA. The experiment in a line: Postemergence herbicide evaluation, overall average % weed control across ABUTH, AMATA, AMBEL, CHEAL and ERICA. The following applies: post-emergence, read-out: Overall Ave % Weed Control. The class given is in vivo.
For series [4], the system named is Chenopodium album (CHEAL), common lambsquarters. The experiment in a line: Postemergence herbicide evaluation, growth of Chenopodium album (CHEAL). To be noted: Chenopodium album, post-emergence, read-out: Ave. CHEAL. The series is classed as in vivo.
In series [5] the test system is Ambrosia artemisiifolia (AMBEL), common ragweed. The experiment in a line: Postemergence herbicide evaluation, growth of Ambrosia artemisiifolia (AMBEL). The following applies: Ambrosia artemisiifolia, post-emergence, read-out: AVE. AMBEL. The class given is in vivo.
Series [6] has as its system Amaranthus rudis (AMATA), tall water hemp. Nature of the series: Postemergence herbicide evaluation, growth of Amaranthus rudis (AMATA). The series is classed as in vivo. The following applies: Amaranthus tuberculatus, post-emergence, read-out: Ave. AMATA.
Series [7] has as its system glyphosate resistant Conyza canadensis (L.) (ERICA), horseweed. Nature of the series: Postemergence herbicide evaluation, growth of Conyza canadensis (ERICA). The series is classed as in vivo. To be noted: Erigeron canadensis, post-emergence, percent reduction in plant size vs untreated control, read-out: Ave. ERICA; for pest or weed control at 280 g/ha: 280 g ae/ha; for pest or weed control at 560 g/ha: 560 g ae/ha.

Series [8] has as its system Common Lambsquarters (CHEAL). The experiment in a line: Greenhouse post-emergence mixture trials, percent visual control. The class given is in vivo. To be noted: CHEAL, 21 DAA.
In the next series the test system is Velvetleaf (ABUTH). Described as above. The following applies: Abutilon theophrasti, post-emergence, 504 h, ABUTH, 21 DAA; for pest or weed control at 150 g/ha: Mesotrione 150 g ai or ae/ha alone. The series is classed as in vivo.
The mark [9] stands for this setting: 168 h, 280 g ae/ha, 7 DAA, percent reduction in plant size vs untreated control.
[10] abbreviates: 168 h, 560 g ae/ha, 7 DAA, percent reduction in plant size vs untreated control.
The mark [11] stands for this setting: 336 h, 280 g ae/ha, 14 DAA, percent reduction in plant size vs untreated control.
The mark [12] stands for this setting: 336 h, 560 g ae/ha, 14 DAA, percent reduction in plant size vs untreated control.
The mark [13] stands for this setting: 504 h, 280 g ae/ha, 21 DAA, percent reduction in plant size vs untreated control.
The mark [14] stands for this setting: 504 h, 560 g ae/ha, 21 DAA, percent reduction in plant size vs untreated control.

The structures appear in SMILES notation. Like-named read-outs stand apart in the source and are kept apart here.

Regarding `O=C(COc1ccc(Cl)cc1Cl)ONC(=O)c1cccnc1` [Compound A19], the “TGA Data (rate of weight loss, volatility)” value in series [1] amounted to 0.348 µg/min.
`O=C(COc1ccc(Cl)cc1Cl)OCCOCCOCCOCCOC(=O)COc1ccc(Cl)cc1Cl` [Compound B14]: the pest or weed control at 280 g/ha in [2] (168 h) was 60%; in series [2] (336 h), 77.5%; in series [2] (504 h) it was 92%; in [3] (168 h), 75%; in series [3] (336 h) it was 87.3%; in [3] (504 h), 90.2%. Besides, the pest or weed control at 280 g/ha amounted to 75% in [4] (168 h); 94% in series [4] (336 h); 90% in series [4] (504 h); 82.5% in series [5] (168 h); 75% in series [5] (336 h); 100% in series [5] (504 h). In addition, the pest or weed control at 280 g/ha in series [6] (168 h) came out at 72.5%; in [6] (336 h), 90%; in series [6] (504 h), 70%. Besides, the pest or weed control at 560 g/ha in series [2] (168 h) is 70%; in series [2] (336 h), 87.5%; in series [2] (504 h), 97.5%; in series [3] (168 h), 82.5%; in series [3] (336 h), 94.2%; in series [3] (504 h) it was 97.6%. Moreover, the pest or weed control at 560 g/ha turned out to be 77.5% in series [4] (168 h); 98% in series [4] (336 h); 99% in series [4] (504 h); 87.5% in [5] (168 h); 89.5% in [5] (336 h); 100% in series [5] (504 h). The pest or weed control at 560 g/ha in series [6] (168 h) worked out at 90%; in [6] (336 h), 96%; in [6] (504 h), 92.5%.
In the case of `Cc1nc2ccccc2n1C(=O)COc1ccc(Cl)cc1Cl` [Compound D12], the pest or weed control at 280 g/ha amounted to 47.5% in series [2] (setting [9]); 67.5% in [2] (setting [11]); 67.5% in series [2] (setting [13]); 70% in series [3] (168 h, 280 g ae/ha, 7 DAA, average over five weeds); 83.9% in series [3] (336 h, 280 g ae/ha, 14 DAA, average over five weeds); 84.5% in series [3] (504 h, 280 g ae/ha, 21 DAA, average over five weeds). Moreover, the pest or weed control at 280 g/ha in series [4] (setting [9]) amounted to 80%; in series [4] (setting [11]), 98.5%; in series [4] (setting [13]), 90%; in series [7] (168 h, 7 DAA) it was 85%; in series [7] (336 h, 14 DAA), 98.5%; in [7] (504 h, 21 DAA) it was 100%. In addition, the pest or weed control at 280 g/ha in [5] (setting [9]) was determined as 75%; in series [5] (setting [11]), 67.5%; in [5] (setting [13]), 100%; in series [6] (setting [9]), 62.5%; in [6] (setting [11]) it was 87.5%; in [6] (setting [13]), 65%. The pest or weed control at 560 g/ha in series [2] (setting [10]) was determined as 67.5%; in series [2] (setting [12]), 85%; in series [2] (setting [14]), 96.5%; in [3] (168 h, 560 g ae/ha, 7 DAA, average over five weeds), 75.5%; in [3] (336 h, 560 g ae/ha, 14 DAA, average over five weeds), 90.6%; in [3] (504 h, 560 g ae/ha, 21 DAA, average over five weeds), 94%. The pest or weed control at 560 g/ha is 75% in series [4] (setting [10]); 98.5% in [4] (setting [12]); 96% in series [4] (setting [14]); 85% in series [7] (168 h, 7 DAA); 99.5% in series [7] (336 h, 14 DAA); 100% in series [7] (504 h, 21 DAA). Besides, the pest or weed control at 560 g/ha in [5] (setting [10]) is 72.5%; in [5] (setting [12]) it was 77.5%; in series [5] (setting [14]), 100%; in series [6] (setting [10]), 77.5%; in series [6] (setting [12]), 92.5%; in series [6] (setting [14]) it was 77.5%.
On to `CS(=O)(=O)c1ccc(C(=O)C2C(=O)CCCC2=O)c([N+](=O)[O-])c1` [Mesotrione, 2-[4-(methylsulfonyl)-2-nitrobenzoyl]-1,3-cyclohexanedione, reference compound], for which the pest or weed control at 75 g/ha in [8] (Chenopodium album, post-emergence, 504 h, Trial 2 Trt 25: B2 0 g ae/ha, Mesotrione 75 g ai or ae/ha alone) is 100%; in the series on Velvetleaf (ABUTH) (Trial 2 Trt 25, B2 0 g ae/ha, Mesotrione 75 g ai or ae/ha alone) it was 100%. Also, the pest or weed control at 150 g/ha in series [8] (Chenopodium album, post-emergence, 504 h, Trial 2 Trt 28: B2 0 g ae/ha, Mesotrione 150 g ai or ae/ha alone) was found to be 100%; in the series on Velvetleaf (ABUTH) (Trial 2 Trt 28, B2 0 g ae/ha), 100%; in the series on Velvetleaf (ABUTH) (Trial Bridge 1 Trt 10, D10 0 g ae/ha), 100%. Besides, the “% Control” value in [8] (Trial Bridge 1, mixing partner alone (D10 at 0 g ae/ha), Mesotrione 150 g ai or ae/ha) was found to be 100%.

(Values after US20260042731A1, “(2,4-DICHLOROPHENOXY)ACETIC ACID ANALOGS” (CORTEVA AGRISCIENCE LLC, priority 2022, published 2026).)
